According to patent US8680058B2, “Selectively targeted antimicrobial peptides and the use thereof” (priority 2006, dated 2014):
Values after ≈ are worked out from the molar mass of the structure shown. Non-standard residues stand in square brackets, D forms with d. Residues, ends and D or L forms follow the SMILES beside them. No end group written: not given here.

What was measured:
P. aeruginosa biofilms = assay: Rotating-disk biofilm reactor, P. aeruginosa biofilm killing; type: cell-based, Pseudomonas aeruginosa; details: 100 μg/mL alone, 4 h or 24 h
Protocol: In this experiment, a rotating-disk biofilm reactor system was used for generating quantitative data on biofilm susceptibility to tobramycin, G10 and G10KHc. The system consisted of a reactor vessel containing 250 mL of diluted trypticase-soy broth (TSB) (1:100) medium. Reactors were inoculated with overnight cultures (1%, v/v). After static overnight growth in TSB, a flow of fresh medium was initiated (dilution rate, 0.7 h^−1). After 24 h in a flow of medium, the polycarbonate chips with attached biofilm bacteria were aseptically removed from the spinning disk and washed three times in ddH2O (pH 7.4) and incubated in 1 mL ddH2O. G10 (100 μg/mL), G10KHc (100 μg/mL), tobramycin (100 μg/mL), or a combination of the two was added as indicated. The chips were then incubated for 4 or 24 h in 24-well tissue culture plates (Falcon no. 353047; Becton Dickinson Labware, Franklin Lakes, N.J.). To estimate the number of viable P. aeruginosa remaining, the disks were placed in 1 mL PBS and the cells were dispersed using a tissue homogenizer (Brinkmann Instruments, Westbury, N.Y.) and the total cfu per chip was determined by serial dilution and plating on LB agar.

P. aeruginosa = assay: microbe, parasite or virus in culture; type: cell-based, Pseudomonas aeruginosa; details: for MIC: Pseudomonas aeruginosa
Protocol: 2.3 Antimicrobial Activities. The general antimicrobial activities of G10KHc, G10, and tobramycin against clinical isolates of P. aeruginosa were evaluated by minimum inhibitory concentration (MIC) assay as previously described (Eckert et al., 2006) and shown in Table 5. MICs are reported in μM, though for familiarity, 1 μM tobramycin=0.468 μg/mL. P. aeruginosa were grown to log phase and adjusted to ˜1×10^5 cfu/mL in Mueller-Hinton (MH) broth and added to 96-well plates. Two-fold serial dilutions of peptide were then added to bacteria and the plates incubated for 18-24 hours at 37° C. MIC was determined as the concentration of peptide present in the last clear well (no growth). […] In contrast to tobramycin, G10KHc was also effective against aminoglycoside and multiple-antibiotic resistant P. aeruginosa isolated from CF patients (AGR10, MR15). Additionally, as mucoid P. aeruginosa are often associated with reduced susceptibility to antimicrobial agents, we were encouraged to find that G10KHc was active against one such strain, PDO300.

P. aeruginosa ATCC 15692 [1] = assay: Time-kill against high-density planktonic P. aeruginosa; type: cell-based, Pseudomonas aeruginosa
Protocol: For evaluation of enhanced activity between G10KHc and tobramycin against high density planktonic cultures, ATCC 15692 were grown overnight were adjusted to ˜1×10^8 cfu/mL in ddH2O (pH 7.4) and exposed to 5 μM tobramycin, 5 μM G10KHc or a combination of both agents (a combination of 5 μM tobramycin (2.34 μg/mL) and 5 μM G10KHc or G10). 10 μL of the treated cultures was rescued by dilution after 24 h and the surviving cfu/mL plated on LB and counted after growth on LB agar.

P. aeruginosa ATCC 15692 [2] = assay: Killing of exogenous P. aeruginosa in pooled CF sputum; type: cell-based, Pseudomonas aeruginosa
Protocol: 3.2 Activity and stability of G10KHc and G10KHc-D in sputum. Determination of peptide antimicrobial effects or activity in sputum was investigated in a similar manner to previous reports (Sajjan et al., 2001). To assay the activity of G10KHc and G10KHc-D against exogenous P. aeruginosa in sputum, collected sputum samples were diluted 1:10 in 10 mM PBS (PBS) and pooled (referred to as pooled sputum). In 100 μL pooled sputum, ATCC 15692 was added to a final concentration of ˜5×10^6 cfu/mL prior to 25 μM peptide addition.
In samples examining the effect of protease inhibitors on peptide activity, pooled sputum samples were pre-treated for 30 min with 1 mM protease inhibitor, either phenylmethylsulphonylfluoride (PMSF), beta-mercaptoethanol (BME), or ethylenediaminetetraacetic acid (EDTA), (all acquired from Sigma-Aldrich), followed by addition of 25 μM G10KHc and ATCC 15692 (˜5×10^6 cfu/mL).
Bacteria surviving peptide treatment were rescued by dilution (1:50) in growth media at 4 h and kept on ice before appropriate dilution and plating on LB agar supplemented with ampicillin (25 μg/mL). After overnight incubation at 37° C., colonies were counted and the surviving cfu/mL quantitated. 100 cfu/mL was considered as the countable limit for all plating procedures. […]

P. aeruginosa ATCC 15692 [3] = assay: Time-kill (killing kinetics), P. aeruginosa in LB with 30% mouse serum; type: cell-based, Pseudomonas aeruginosa; details: 10 μM, 1 min to 2 h
Protocol: Time-Kill (killing kinetics) experiments were performed essentially as described previously (Eckert et al., 2006). Briefly, P. aeruginosa were grown to log phase and diluted to ˜1×10^5 cfu/mL (moderate density planktonic cultures) in LB with 30% mouse serum (MP Biomedicals) prior to the addition of 10 μM tobramycin, G10 or G10KHc to the cell suspensions. At each time point, 10 μL of the culture was removed and P. aeruginosa cells rescued by dilution in 500 μL LB and kept on ice until plating. Surviving cfu/mL were quantitated after plating on LB agar and incubating overnight at 37° C. under aerobic conditions.

S. mutans biofilms = assay: Binding of fluorescently labeled genome-derived peptides to S. mutans biofilms; parameters: species or system Streptococcus mutans; details: fluorescent label
Description: The targeting peptide 1903 was obtained by scanning the genomic sequence of S. mutans UA140. The predicted open reading frames (ORFs) of the publicly-available genome were examined and those ORFs that encoded for proteins under 50 amino acids were noted and re-examined after scanning the entire genome. A number of peptides predicted to be encoded by these ORFs were selected, synthesized with fluorescent labels, tested for binding to S. mutans biofilms.

P. aeruginosa ATCC 15692 [4] = assay: Effect of rhDNase on STAMP killing in concentrated sputum; type: cell-based, Pseudomonas aeruginosa
Protocol: 3.4 Effect of rhDNase on STAMP activity in sputum. Recombinant human DNase, which is commonly used during treatment of CF to reduce sputum viscosity and promote airway clearing (Fuchs et al., 1994), was added to pooled, concentrated sputum samples to determine if G10KHc/PMSF and G10KHc-D activity could be improved during co-treatment under these conditions. To determine the effect of rhDNase (Genentech, San Francisco, Calif.) on STAMP killing ability, individual sputum samples were diluted 1:2 in 100 μg/mL rhDNase, briefly vortexed, and incubated at room temperature for 10 min. Treated samples were then pooled, followed by 1 mM PMSF addition, where appropriate, and incubation for 1 h. 25 μM G10KHc or G10KHc-D was then added with ˜5×10^6 cfu/mL ATCC 15692 and incubated 4 h. Survivors were then rescued and quantitated by plating as described above.

For `NC[C@H]1O[C@H](O[C@H]2[C@H](O)[C@@H](O[C@H]3O[C@H](CO)[C@@H](O)[C@H](N)[C@H]3O)[C@H](N)C[C@@H]2N)[C@H](N)C[C@@H]1O` [tobramycin], the “killing effect against P. aeruginosa biofilms” value (P. aeruginosa biofilms) was “very limited killing effects”, the MIC (P. aeruginosa; ATCC9027, P. aeruginosa ATCC 9027) was 2.12 µM (≈ 0.991 µg/mL) and the MIC (P. aeruginosa; ATCC10145, P. aeruginosa ATCC 10145) was 1.75 µM (≈ 0.818 µg/mL). The MIC (P. aeruginosa; ATCC15692, P. aeruginosa ATCC 15692) was 3.05 µM (≈ 1.43 µg/mL), the MIC (P. aeruginosa; ATCC27583, P. aeruginosa ATCC 27583) was 1.75 µM (≈ 0.818 µg/mL) and the MIC (P. aeruginosa; P. aeruginosa AGR10 (aminoglycoside resistant, CF isolate)) was 55 µM (≈ 25.7 µg/mL). The MIC (P. aeruginosa; P. aeruginosa MR15 (multiple-antibiotic resistant, CF isolate)) was 55 µM (≈ 25.7 µg/mL), the MIC (P. aeruginosa; P. aeruginosa PAK) was 2.12 µM (≈ 0.991 µg/mL) and the MIC (P. aeruginosa; P. aeruginosa S40) was 0.4 µM (≈ 0.187 µg/mL). It also gave an MIC (P. aeruginosa; P. aeruginosa S60) of 0.4 µM (≈ 0.187 µg/mL), an MIC (P. aeruginosa; P. aeruginosa S100) of 3.5 µM (≈ 1.64 µg/mL) and an MIC (P. aeruginosa; PA14, P. aeruginosa PA14) of 0.7 µM (≈ 0.327 µg/mL). For the same molecule, the MIC (P. aeruginosa; PAO1, P. aeruginosa PAO1) was 2.5 µM (≈ 1.17 µg/mL), the “improvement in bactericidal effect over 5 μM G10 or G10KHc” value (P. aeruginosa ATCC 15692 [1]; 5 μM (2.34 μg/mL), 24 hours, high-density planktonic cells) was 1-2 log10 and the “surviving cfu/mL” value (P. aeruginosa ATCC 15692 [1]; 5 μM each agent, 24 h, 1×10^8 cfu/mL culture) was 1×10^7 cfu/mL.

In the case of `O=S(=O)(F)Cc1ccccc1` [PMSF, phenylmethylsulphonylfluoride, reference compound], the “effect of inhibitor alone on P. aeruginosa viability” value (P. aeruginosa ATCC 15692 [2]; 1 mM) is reported as “only a small affect on P. aeruginosa viability”.

In the case of “KNLRRIIRKGIHIIKKYG [novispirin G10, KNLRRIIRKGIHIIKKYG]”, the “killing kinetics (in words)” value (P. aeruginosa ATCC 15692 [3]) is reported as “ineffective”, the MIC range (P. aeruginosa) is reported as 10 to 60 µM and the “mean MIC” value (P. aeruginosa) is reported as 23.4 µM.

With “NIFEYFLE (synthetic targeting peptide 1903)” the “binding to S. mutans” value (S. mutans biofilms) was “showed the binding activity to S. mutans”.

`CC[C@@H](C)[C@@H](NC(=O)CNC(=O)[C@@H](CCCCN)NC(=O)[C@@H](CCCNC(=N)N)NC(=O)[C@H](NC(=O)[C@H](NC(=O)[C@@H](CCCNC(=N)N)NC(=O)[C@@H](CCCNC(=N)N)NC(=O)[C@@H](CC(C)C)NC(=O)[C@@H](CC(N)=O)NC(=O)[C@@H](CCCCN)NC(=O)[C@@H](CO)NC(=O)CNC(=O)CNC(=O)[C@@H](CO)NC(=O)CNC(=O)CNC(=O)[C@@H](Cc1c[nH]cn1)NC(=O)[C@@H](CCCCN)NC(=O)[C@@H](CCCNC(=N)N)NC(=O)[C@@H](Cc1c[nH]cn1)NC(=O)[C@@H](CCCCN)NC(=O)[C@@H](CCCNC(=N)N)NC(=O)[C@@H](Cc1c[nH]cn1)NC(=O)[C@@H](CCCCN)NC(=O)[C@@H](CCCNC(=N)N)NC(=O)[C@@H](Cc1c[nH]cn1)NC(=O)[C@@H](CCCCN)NC(=O)[C@H](N)CCCCN)[C@H](C)CC)[C@H](C)CC)C(=O)N[C@H](Cc1c[nH]cn1)C(=O)N[C@@H](C(=O)N[C@@H](C(=O)N[C@H](CCCCN)C(=O)N[C@H](CCCCN)C(=O)N[C@H](Cc1ccc(O)cc1)C(=O)NCC(=O)O)[C@H](C)CC)[C@H](C)CC` [Peptide G10KHc-D] (H-[dK][dK][dH][dR][dK][dH][dR][dK][dH][dR][dK][dH]GG[dS]GG[dS][dK][dN][dL][dR][dR][dI][dI][dR][dK]G[dI][dH][dI][dI][dK][dK][dY]G-OH; N-terminus and C-terminus assumed) was tested, and the “recovered cfu/mL as percent of untreated control” value (P. aeruginosa ATCC 15692 [4]; concentrated sputum not treated with rhDNase) was about 30% and the “reduction of recovered P. aeruginosa compared to untreated samples” value (P. aeruginosa ATCC 15692 [2]; 25 μM, 4 h, no inhibitor) was 3-4 log10.

B1: rhDNase: Recombinant human DNase (Genentech), sputum mucolytic agent (protein, UniProt P24855 23-282, looked up)
Deoxyribonuclease-1: LKIAAFNIQTFGETKMSNATLVSYIVQILSRYDIALVQEVRDSHLTAVGKLLDNLNQDAPDTYHYVVSEPLGRNSYKERYLFVYRPDQVSAVDSYYYDDGCEPCGNDTFNREPAIVRFFSRFTEVREFAIVPLHAAPGDAVAEIDALYDVYLDVQEKWGLEDVMLMGDFNAGCSYVRPSQWSSIRLWTSPTFQWLIPDSADTTATPTHCAYDRIVVAGMLLRGAVVPDSALPFNFQAAYGLSDQLAQAISDHYPVEVMLK
With B1 the “effect of rhDNase treatment alone on P. aeruginosa” value (P. aeruginosa ATCC 15692 [4]; 100 μg/mL rhDNase) was “not affected”.
